# Measurements reported in paper PMC7179259, “Safety, Tolerability, Pharmacokinetics, and Antimalarial Activity of the Novel Plasmodium Phosphatidylinositol 4-Kinase Inhibitor MMV390048 in Healthy Volunteers” (Antimicrobial Agents and Chemotherapy, 2020).
# System: healthy subjects inoculated with blood-stage P. falciparum
# Experiment: Induced blood-stage malaria (IBSM) study: safety
# Format: in vivo, human
# Procedure: The second study was conducted at Q-Pharm (Brisbane, Australia) from 27 October 2014 to 19 December 2014. This was an IBSM, phase 1b, single-center, open-label study, in which a single dose of MMV390048 was administered to subjects previously inoculated with blood-stage P. falciparum. This study was planned to consist of two dose cohorts; however, a second cohort was not enrolled due to the high variability in pharmacokinetic profiles observed in the first cohort and in the first-in-human study (see Results). The IBSM study commenced when the first two dose cohorts of the first-in-human study had been completed. MMV390048 was administered in the first-in-human and IBSM studies in a powder-in-bottle formulation.
# (ii) IBSM study. The dose of MMV390048 chosen (20 mg) was based on the pharmacokinetic, safety, and tolerability data available from the first-in-human study at the time the IBSM study commenced (when 5- and 20-mg-dose cohorts of the first-in-human study had been completed). This dose was below the estimated single dose required to achieve complete cure calculated from preclinical studies (80 to 100 mg) since recrudescence allows for characterization of the pharmacokinetic/pharmacodynamic relationship between MMV390048 and P. falciparum parasitemia. Subjects were inoculated intravenously on day 0 with erythrocytes infected with ∼1,800 viable chloroquine-sensitive P. falciparum 3D7 parasites ([17]). Fasted (≥8 h) subjects were dosed with MMV390048 when they reached the parasitemia threshold for treatment (∼1,000 parasites ml^−1) and were followed up until the end-of-study visit on day 28.
# Safety endpoints were the incidence, severity, and relationship to the investigational product (and inoculum for the IBSM study) of observed and self-reported adverse events (AEs), and changes from baseline in physical examination, vital signs, standard electrocardiograms (ECGs), continuous ECGs (first-in-human study only), and laboratory evaluation (hematology, coagulation parameters, hemolysis panel, clinical chemistry, and urinalysis) findings. […] AE severity was evaluated according to the Common Terminology Criteria for Adverse Events version 4.03 ([18]) and the World Health Organization recommendations for grading acute and subacute toxic effects ([19]).
structure (smiles),measurement,setting,value
CS(=O)(=O)c1ccc(-c2cnc(N)c(-c3ccc(C(F)(F)F)nc3)c2)cc1 [MMV390048],AEs deemed related to malaria,20 mg,81.3%
same,"No. (%) of subjects with adverse events: All AEs, Treatment related",20 mg (n = 6),0
same,No. (%) of subjects with adverse events: Grade 2 AEs,20 mg (n = 6),3 (50)
same,"No. (%) of subjects with adverse events: Grade 2 AEs, Treatment related",20 mg (n = 6),0
same,No. (%) of subjects with adverse events: Grade 3 AEs,20 mg (n = 6),0
same,No. (%) of subjects with adverse events: SAEs,20 mg (n = 6),0
same,No. of adverse events: All AEs,20 mg (n = 6),32
same,No. of adverse events: Grade 2 AEs,20 mg (n = 6),9
same,"No. of adverse events: Grade 2 AEs, Treatment related",20 mg (n = 6),0
same,No. of adverse events: Grade 3 AEs,20 mg (n = 6),0
same,No. of adverse events: SAEs,20 mg (n = 6),0
same,AEs mild in severity,"20 mg, 23/32 AEs",71.9%
same,"headache (most common AE), cases","20 mg, in 4 subjects",7
